Measured values from PubChem BioAssay (NCI).
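96-well plates; 48 h exposure; 5 concentrations. Endpoints by linear interpolation between flanking doses. Not reached: highest tested concentration assigned. At the GI50, growth is halved. At the TGI there is no net growth.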

How the values were obtained:
Assay in all cases: NCI tumour cell line growth inhibition, 48 h
[1] = tested on: MCF7 breast
[2] = tested on: SF-539 CNS
[3] = tested on: OVCAR-5 ovarian
[4] = tested on: RXF 393 renal
[5] = tested on: SK-MEL-2 melanoma
[6] = tested on: K-562 leukemia
[7] = tested on: SK-OV-3 ovarian
[8] = tested on: SR leukemia
[9] = tested on: DU-145 prostate
[10] = tested on: HS 578T breast

SMILES | TGI [1] [µM] | TGI [2] [µM] | TGI [3] [µM] | TGI [4] [µM] | TGI [5] [µM] | TGI [6] [µM] | TGI [7] [µM] | TGI [8] [µM] | TGI [9] [µM] | TGI [10] [µM] | GI50 [1] [µM] | GI50 [2] [µM] | GI50 [3] [µM] | GI50 [4] [µM] | GI50 [6] [µM] | GI50 [7] [µM] | GI50 [8] [µM] | GI50 [9] [µM] | GI50 [10] [µM]
Cn1nc(-c2ccc(S(=O)(=O)/N=C(\NN)Nc3ccc(Cl)cc3)s2)cc1C(F)(F)F | 44.5 | 30 | 30.1 | 23.6 | 34.1 | 35.4 | 41.9 | 41.7 | 30.8 | – | – | – | – | – | – | – | – | – | –
O=C(/C=C/c1ccc(Cl)cc1)Oc1ccc(C=C2CCC/C(=C\c3ccc(OC(=O)/C=C/c4ccc(Cl)cc4)cc3)C2=O)cc1 | > 100 | > 100 | > 100 | > 100 | > 100 | > 100 | > 100 | – | > 100 | > 100 | – | – | – | – | – | – | – | – | –
COc1cc2nc(-c3ccc(Cl)cc3)cc(OCCCN3CCOCC3)c2cc1OC | > 100 | > 100 | > 100 | 3.79 | – | > 100 | > 100 | > 100 | – | – | 2.49 | 2.99 | 1.58 | 1.12 | 2.71 | 3 | 0.414 | – | –
c1c[nH]c(-c2cccc3nsnc23)c1 | > 100 | > 100 | > 100 | > 100 | > 100 | > 100 | > 100 | > 100 | > 100 | – | – | – | – | – | – | – | – | – | –
COc1cc(C)c(CC/C(C)=C/Cc2cc(O)ccc2O)c(C)c1C | – | > 25 | – | > 25 | > 25 | > 25 | > 25 | > 25 | – | – | – | – | – | – | – | – | – | – | –
COC(=O)/C=C(\C)CC/C=C(\C)CCC1OC1(C)C (stereo not drawn) | 21.8 | 24.1 | 25.3 | 23.8 | 21.2 | 22 | > 75 | 23.4 | – | 35.2 | – | – | – | – | – | – | – | – | –
Cc1nc(N)c(N2CCN(C#N)CC2)c(=O)[nH]1 | > 100 | > 100 | > 100 | – | > 100 | > 100 | – | > 100 | > 100 | > 100 | – | – | – | – | – | – | – | – | –
CN(CCN1CCCC1)C1CCc2cc(Cl)c(Cl)cc2C1 (stereo not drawn) | 29 | 31.4 | 31.4 | – | 35.2 | > 100 | 32.4 | 74.5 | 26 | 56.2 | – | – | – | – | – | – | – | – | –
CC(=O)c1ccc(Oc2c3ccccc3nc3ccccc23)cc1 | 12.1 | 5.5 | 23.9 | 21.3 | 21.4 | 20.1 | 29.3 | – | 15.2 | 31.3 | – | – | – | – | – | – | – | – | –
Cn1c2ccccc2n2c3ncccc3c(=O)c(C#N)c12 | 21.1 | – | > 100 | > 56.4 | 97.4 | > 100 | 98.1 | > 100 | 24.7 | > 94.1 | – | – | – | – | – | – | – | – | –
CC(=O)Nc1nc(Cl)cc(NCC2(CO)CCC2)n1 | > 100 | – | > 100 | > 100 | > 100 | > 100 | > 100 | > 100 | > 100 | > 100 | – | – | – | – | – | – | – | – | –
CCOC(=O)C1C(c2ccc(Cl)cc2Cl)NC(c2ccc(C)cc2)C(C(=O)OC)S1(=O)=O (stereo not drawn) | – | > 100 | > 100 | > 100 | > 100 | > 100 | > 100 | > 100 | – | – | – | – | – | – | – | – | – | – | –
O=C(COc1ccc(OCC(=O)N/N=C/c2ccc(-c3ccc(Cl)cc3Cl)o2)c(Cl)c1)N/N=C/c1ccc(-c2ccc(Cl)cc2Cl)o1 | > 100 | – | > 100 | 81.2 | > 100 | 50.2 | – | 8.25 | > 100 | > 100 | – | – | – | – | – | – | – | – | –
N#Cc1c(-c2ccc([N+](=O)[O-])cc2)cc(-c2ccc(Nc3ccnc4cc(Cl)ccc34)cc2)[nH]c1=O | > 100 | > 100 | > 100 | > 100 | > 100 | > 100 | > 100 | > 100 | > 100 | – | – | – | – | – | – | – | – | – | –
NC1=CC(=O)c2c(O)ccc(O)c2C1=O | 18.6 | 36 | 35.3 | 22.1 | 32.6 | > 50.5 | > 94.5 | – | 32.1 | 68.3 | – | – | – | – | – | – | – | – | –
O=c1ccc2ccc(S)cc2o1 | > 100 | > 100 | > 100 | > 100 | > 100 | – | > 100 | > 100 | > 100 | > 100 | – | – | – | – | – | – | – | – | –
c1ccc(-c2c(-c3ccccc3)[n+](Cc3ccc4ccccc4c3)c(-c3ccc(-c4nc5ccccc5s4)cc3)n2Cc2ccc3ccccc3c2)cc1 | 0.337 | 1.24 | 1.17 | – | – | 3.79 | – | 0.756 | 1.03 | 1.41 | 0.0587 | 0.305 | 0.311 | – | 0.0945 | – | 0.14 | 0.262 | 0.296
O=c1c(F)cn2c(=O)n1CCCCCCCn1c(=O)c(F)cn(c1=O)CCCCCCC2 | > 100 | > 100 | > 100 | > 100 | > 100 | > 100 | > 100 | > 100 | 12.4 | – | – | – | – | – | – | – | – | – | –
O=C(NCc1ccccc1)c1cc2ccccc2oc1=Nc1cccc(C(F)(F)F)c1 | > 100 | – | > 100 | > 100 | > 100 | > 100 | > 100 | 66.1 | > 100 | > 100 | – | – | – | – | – | – | – | – | –
CCOC(=O)/C=C/c1nc(C#N)c(N)o1 | > 100 | – | > 100 | > 100 | > 100 | > 100 | > 100 | > 100 | > 100 | > 100 | – | – | – | – | – | – | – | – | –
Cc1c2cccc-2c2cc(O)c3ccccc3c2n1-c1ccc(N(C)C)cc1 | 17.4 | 27.9 | 24.7 | – | 31.4 | 26.8 | 29.3 | 26.4 | – | 37.5 | – | – | – | – | – | – | – | – | –
CC(=O)NNc1nc(C)c(C(=O)NNC(=O)C(=O)Nc2ccc([N+](=O)[O-])cc2[N+](=O)[O-])s1 | – | > 100 | > 100 | > 100 | > 100 | > 100 | > 100 | > 100 | – | – | – | – | – | – | – | – | – | – | –
